Assay [1] has as its system nuclear symmetric Arginine dimethylation in A549 cells. Kind of assay: PD assay (assay 2): inhibition of nuclear symmetric Arginine dimethylation (SYM10 immunohistochemistry), 48 h. To be noted: for pIC50 Assay 2: averaged values; for IC50: Homo sapiens. Format: cell-based. Here is the method:
Experimental Procedure PD Assay (Assay 2)
A549 cells (ATCC, Cat #CCL-185) were cultured in Dulbecco's Modified Eagle's Medium (DMEM) (Sigma, Cat #D5796), supplemented with 10% Fetal Calf Serum (FCS) (HyClone™, Cat #SV30160.03), 100 mM Sodium Pyruvate (Sigma, Cat #S8636), 200 mM L-Glutamine (Sigma, Cat #G7513) and 50 mg/mL gentamycin (Gibco, Cat #15750-037).
Reagents used for buffers were purchased: Dulbecco's phosphate buffered saline (DPBS) without Ca/Mg (Sigma, Cat #D8537), phosphate buffered saline (PBS) 10× (Roche, Cat #11 666 789 001), Formalin solution 10% (Sigma, HT50-1-128-4L), Methanol 100% (Sigma, Cat #32213-2.5L), Triton X-100 (Acros, Cat #215680010), Bovine Serum Albumin (BSA) (Sigma, Cat #A2153), Alexa fluor 488 goat anti-rabbit antibody (Life Technologies, Cat #A11034), HCS CellMask Deep Red Stain (Life Technologies, Cat #H32721), Hoechst Stain (Life Technologies, Cat #33258), Anti-dimethyl-Arginine, sym (SYM10) antibody (Millipore, 07-412).
Immunohistochemistry Procedure
Cells were plated at 400 cells/40 μL/well in 384 well black μplates clear bottom (Perkin Elmer) and overnight incubated at 37° C., 5% CO2. […] 80 nL of the respective dilution of the compounds was added using the Labcyte POD 810 (Labcyte) reaching a final DMSO concentration of 0.2% in cell culture. After an incubation period of 48 h at 37° C. and 5% CO2, cells were fixed in 10% formalin solution for 15 min at room temperature and 20 min in ice-cold methanol, after which they were washed 3× in DPBS. Subsequently, the cells were blocked for 1 h in blocking buffer (PBS+1% BSA and 0.5% Triton X-100) and incubated overnight at 4° C. with the SYM10 antibody diluted 1/2000 in blocking buffer. The cells were washed 3× with washing buffer (PBS+0.1% Triton X-100) and incubated with the Alexa fluor 488 goat anti-rabbit antibody diluted 1/200 in blocking buffer for 1 h at room temperature. Subsequently, they were washed 3× with washing buffer and incubated for 30 min at room temperature with PBS containing a 1/5000 dilution of Hoechst Stain and a 1/5000 dilution of the HCS CellMask Deep Red Stain. After a final wash with PBS, the plates were imaged using the 10×W lens of the Opera® system (Perkin Elmer Life Sciences) using following settings (values in nm):
In the above equations, the following variable names are used: […]
In the above equations, the following controls were used for normalization: […]
Low control: minimum level of symmetrically dimethylated Arginines (cells treated with reference compound at 10 μM).
High control: maximum level of symmetrically dimethylated Arginines (DMSO treated cells).
IC50 and pIC50 (−log IC50) values were calculated using the appropriate software.
The pIC50 values in the Table below are averaged values (Co. No. means compound number; n.d. means not determined).

The target in assay [2] is T1, PRMT5-MEP50 enzyme (Homo sapiens, UniProt O14744).
T1 construct: One virus expresses full length human PRMT5 with Flag-tag at N-terminus; Flag (N); purchased Charles River (Argenta); host or cells: insect cells (Sf9), baculovirus co-infection
T1 sequence (O14744 whole entry): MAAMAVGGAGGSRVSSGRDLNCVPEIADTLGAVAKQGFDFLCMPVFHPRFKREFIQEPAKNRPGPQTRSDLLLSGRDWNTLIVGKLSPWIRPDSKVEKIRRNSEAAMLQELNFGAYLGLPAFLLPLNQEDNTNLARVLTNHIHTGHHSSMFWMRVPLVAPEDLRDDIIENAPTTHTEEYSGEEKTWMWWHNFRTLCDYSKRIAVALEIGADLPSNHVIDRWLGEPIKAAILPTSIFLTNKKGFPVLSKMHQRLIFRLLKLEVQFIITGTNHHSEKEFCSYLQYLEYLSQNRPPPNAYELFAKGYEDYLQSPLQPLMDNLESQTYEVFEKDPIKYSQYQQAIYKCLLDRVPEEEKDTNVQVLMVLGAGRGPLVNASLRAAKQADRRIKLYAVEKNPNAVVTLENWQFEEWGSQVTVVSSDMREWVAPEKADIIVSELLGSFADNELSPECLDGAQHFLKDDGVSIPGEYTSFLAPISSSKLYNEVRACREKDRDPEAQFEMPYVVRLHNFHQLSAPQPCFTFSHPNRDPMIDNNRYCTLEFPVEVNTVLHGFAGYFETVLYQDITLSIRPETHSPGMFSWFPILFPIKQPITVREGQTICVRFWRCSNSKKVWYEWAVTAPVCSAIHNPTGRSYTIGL
T1 sequence (Q9BQA1 whole entry partner): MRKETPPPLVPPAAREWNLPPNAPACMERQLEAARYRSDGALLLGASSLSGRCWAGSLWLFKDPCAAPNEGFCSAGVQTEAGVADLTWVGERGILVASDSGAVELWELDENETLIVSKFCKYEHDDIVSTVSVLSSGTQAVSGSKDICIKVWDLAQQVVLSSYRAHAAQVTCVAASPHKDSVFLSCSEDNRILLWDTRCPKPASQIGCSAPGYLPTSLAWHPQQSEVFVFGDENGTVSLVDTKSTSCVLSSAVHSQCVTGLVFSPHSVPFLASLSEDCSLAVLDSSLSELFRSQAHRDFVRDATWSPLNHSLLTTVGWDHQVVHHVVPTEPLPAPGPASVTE
Description: In vitro assay 1a: high throughput mass spectrometer assay of SAH formation, 10 nM enzyme, 60 min. Format: biochemical. Conditions: averaged values, PRMT5-MEP50, 10 nM enzyme, read-out: pIC50 Assay 1a (converted). The text has this:
(§1) Experimental Procedures In Vitro Assay (Assay 1a and 1b)
(§2) PRMT5-MEP50 enzyme was purchased from Charles River (Argenta). The enzyme complex was produced in insect cells (Sf9) infected simultaneously with two baculoviruses. One virus expresses full length human PRMT5 with Flag-tag at N-terminus, the second virus expresses full length MEP50 with His6-TEV cleavage at N-terminus. The protein was affinity purified using anti-Flag (M2) beads eluted with 3×FLAG peptide, followed by His-Select eluted with 0.5M imidazole. Eluted protein was then dialysed against tris-buffered saline (TBS) (pH 8.0) containing 20% glycerol and 3 mM dithiothreitol (DTT).
(§3) Full-length untagged human recombinant histone H2A (residues 1-130, Genbank Accession #NM_021052 MW=14.1 kDa) expressed in E. coli was purchased from Reaction Biology Corporation, Cat #HMT-11-146. Reagents used for making reaction buffer or stopping reaction were purchased including Tris base (Sigma Cat #T-1503), NaCl (Sigma Cat #RGF-3270), MgCl2 (Sigma Cat #M0250), DTTI (Invitrogen Cat #15508-013) and Formic Acid (Riedel deHaen, Cat #33015)
(§4) High Throughput Mass Spectrometer Assay
(§5) PRMT5 catalyzes the sequential methylations of the terminal nitrogen atoms on the guanidine groups of arginine residues within proteins using co-substrate S-adenosyl-L-methionine (AdoMet, SAM), forming mono-methyl (MMA), symmetric-dimethyl arginine (sDMA) and S-adenosyl-L-homocysteine (AdoHcy, SAH). The enzyme activity was determined by following the product SAH formation using high throughput mass spectrometry (Agilent Rapidfire 300 System coupled to a Sciex 4000 series QTrap® triple-quad MS/MS). The reaction buffer was 20 mM Tris-HCl, pH 8.5, 50 mM NaCl, 5 mM MgCl2 and 1 mM DTT. The reaction activity was stopped using 1% formic acid (final concentration).
(§6) The IC50 Studies were performed using eleven point dosing series made for each compound by serially diluted 1:2 in dimethyl sulfoxide (DMSO), with point 12 being a DMSO control. Compounds were first spotted to plates, and followed by addition of 2 μM SAM and 0.6 μM H2A (histone H2A) solution mixture. The same volume of enzyme solution was added to initiate the enzymatic reactions. The final concentrations of the reaction are at 1 μM SAM, 0.3 μM H2A and 10 nM enzyme (assay 1a) or 1.25 nM enzyme (assay 1b). The reaction was incubated at 30° C. for 60 minutes (min) when 10 nM enzyme was used and for 120 min when 1.25 nM enzyme was used. Subsequently, the reaction was quenched by addition of formic acid to a final concentration of 1%. The inhibitions of SAH formation in the presence of compounds were calculated as a percentage of the control relative to the uninhibited reaction as a function of inhibitor concentration. The data were fit as follows: Y=Bottom+(Top−Bottom)/(1+10^((log IC50−X)*h))
(§7) where IC50 is the inhibitor concentration (same unit as X) at 50% inhibition and h is the Hill slope. Y is percent of inhibition, X is log of compound concentration. Bottom and Top are the plateaus in same units as Y.

In assay [3] the target is T1, PRMT5-MEP50 enzyme. Kind of assay: In vitro assay 1b: high throughput mass spectrometer assay of SAH formation, 1.25 nM enzyme, 120 min. Format: biochemical. Conditions: averaged values; PRMT5-MEP50, 1.25 nM enzyme, 120 min; read-out: pIC50 Assay 1b (converted).
From the text: as §1, §2, §3, §4, §5, §6, §7

Where [4] appears, read: PD assay, A549 cells, symmetric Arginine dimethylation.
Setting [5] is: A549, averaged values, PD assay, A549 cells, symmetric Arginine dimethylation, read-out: pIC50 Assay 2 (converted).

Read-outs that look alike come from different tables or passages of the source. A value given as a limit tells only on which side of the number the result lay.

Consider `CC(Oc1ccc2cccnc2c1)[C@H]1O[C@@H](n2ccc3c(N)ncnc32)[C@H](O)[C@@H]1O` (single isomer, unassigned) [Compound 67], for which, in assay [1] (setting [4]), the “pIC50 Assay 2” value is recorded as 6.5. Besides, the IC50 in assay [2] is 100 nM.
Consider `CC(Oc1ccc2cccnc2c1)[C@H]1O[C@@H](n2ccc3c(N)ncnc32)[C@H](O)[C@@H]1O` (single isomer, unassigned) [Compound 68], for which the “pIC50 Assay 2” value in assay [1] (setting [4]) is reported as around 5.14. Besides, the IC50 in assay [2] is 2510 nM; in assay [3], above 100000 nM.
With `Nc1ncnc2c1ccn2[C@@H]1O[C@H](COc2ccc3cc(Br)cnc3c2)[C@@H](O)[C@H]1O` [Compound 2], the IC50 in assay [1] (setting [5]) is 39.8 nM; in assay [2], 7.94 nM; in assay [3], 25.1 nM.
Consider `Nc1ncnc2c1ccn2[C@@H]1O[C@H](COc2cccc3ccncc23)[C@@H](O)[C@H]1O` [Compound 7], for which the IC50 in assay [1] (setting [5]) is around 17400 nM; in assay [2], 1260 nM.
With `Nc1ncnc2c1ccn2[C@@H]1O[C@H](COc2ccc3ccccc3c2)[C@@H](O)[C@H]1O` [Compound 9], the IC50 in assay [1] (setting [5]) is above 20000 nM; in assay [2], 3160 nM.
For `Nc1ncnc2c1ccn2[C@@H]1O[C@H](COc2cnc3cccnc3c2)[C@@H](O)[C@H]1O` [Compound 14], in that order: above 20000 nM and 1260 nM.
For `Nc1ncnc2c1ccn2[C@@H]1O[C@H](COc2ccc3nccnc3c2)[C@@H](O)[C@H]1O` [Compound 15] the same measures were above 3980 nM and 1000 nM.
Consider `Nc1ncnc2c1ccn2[C@@H]1O[C@H](COc2ccc3ccc(Cl)nc3c2)[C@@H](O)[C@H]1O` [Compound 20], for which the IC50 in assay [1] (setting [5]) was 6310 nM; in assay [2], 2000 nM.
Take `COc1cc2c(Cl)ccnc2cc1OC[C@H]1O[C@@H](n2ccc3c(N)ncnc32)[C@H](O)[C@@H]1O` [Compound 36]: the IC50 in assay [1] (setting [5]) is above 20000 nM; in assay [2], 7940 nM.
`Cc1c(OC[C@H]2O[C@@H](n3ccc4c(N)ncnc43)[C@H](O)[C@@H]2O)ccc2cccnc12` [Compound 39]: the IC50 is 2000 nM in assay [1] (setting [5]) and 2510 nM in assay [2].
For `Nc1ncnc2c1c(Br)cn2[C@@H]1O[C@H](COc2ccc3cccnc3c2)[C@@H](O)[C@H]1O` [Compound 45] the same measures were 631 nM and 251 nM.
Turning to `Nc1ncnc2c1ccn2[C@@H]1O[C@H](CSc2ccc3cccnc3c2)[C@@H](O)[C@H]1O` [Compound 48], the results for the IC50 in assay [1] (setting [5]) and in assay [2] were 398 nM and 100 nM, respectively.
For `Nc1ncnc2c1ccn2[C@@H]1C[C@H](/C=C/c2ccc3cc(Cl)cnc3c2)[C@@H](O)[C@H]1O` [Compound 57] the same measures were around 151 nM and 31.6 nM.
For `Nc1ccc2ccc(CC[C@H]3C[C@@H](n4ccc5cncnc54)[C@H](O)[C@@H]3O)cc2n1` [Compound 77], in that order: below 1.17 nM and 0.501 nM.
As for `CNc1ncnc2c1ccn2[C@@H]1C[C@H](CCc2ccc3ccc(N)nc3c2)[C@@H](O)[C@H]1O` [Compound 78], the IC50 is 0.316 nM in assay [1] (A549, read-out: pIC50 Assay 2 (converted)) and 1.26 nM in assay [2].
For the compound `COc1ncnc2c1ccn2[C@@H]1C[C@H](CCc2ccc3ccc(N)nc3c2)[C@@H](O)[C@H]1O` [Compound 79], the figures for the IC50 in assay [1] (setting [5]) and in assay [2] were below 1.17 nM and 0.398 nM, respectively.
For `Nc1nc2cc(CC[C@H]3C[C@@H](n4ccc5c(N)ncnc54)[C@H](O)[C@@H]3O)ccc2cc1Cl` [Compound 81], the results for the IC50 in assay [1] (setting [5]) and in assay [2] were 0.2 nM and 0.251 nM, respectively.
For `Nc1ncnc2c1ccn2[C@@H]1O[C@H](COc2cc3ncc(Br)cc3cc2Cl)[C@@H](O)[C@H]1O` [Compound 92], in that order: 794 nM and 63.1 nM.
Consider `Nc1ncnc2c1ccn2[C@@H]1O[C@H](COc2ccc3cc(Br)cnc3c2Cl)[C@@H](O)[C@H]1O` [Compound 94], for which the results for the IC50 in assay [1] (setting [5]) and in assay [2] were around 1000 nM and 1000 nM, respectively.
Consider `Nc1nc2cc(CC[C@H]3C[C@@H](n4ccc5cnc(Cl)nc54)[C@H](O)[C@@H]3O)ccc2cc1Cl` [Compound 241], for which the IC50 in assay [1] (setting [5]) is below 1.17 nM; in assay [3], 2.51 nM.
For `Nc1nc2cc(CC[C@H]3C[C@@H](n4ccc5cncnc54)[C@H](O)[C@@H]3O)ccc2cc1Cl` [Compound 242] the same measures were below 1.17 nM and 1 nM.
Take `Nc1ncc2ccn([C@@H]3C[C@H](CCc4ccc5cc(Cl)c(N)nc5c4)[C@@H](O)[C@H]3O)c2n1` [Compound 243]: the IC50 in assay [1] (setting [5]) was below 1.17 nM; in assay [3], 0.794 nM.
Regarding `CNC(=O)c1ccc2ccc(OC[C@H]3O[C@@H](n4ccc5c(N)ncnc54)[C@H](O)[C@@H]3O)cc2n1` [Compound 246], the results for the IC50 in assay [1] (setting [5]) and in assay [2] were above 20000 nM and 3160 nM, respectively.
Consider `Nc1nc2cc(CC[C@H]3C[C@@H](n4ccc5ncccc54)[C@H](O)[C@@H]3O)ccc2cc1Cl` [Compound 248], for which the IC50 in assay [1] (setting [5]) is 158 nM; in assay [3] it was 50.1 nM.
Turning to `Nc1nc2cc(CC[C@H]3C[C@@H](n4ccc5cccnc54)[C@H](O)[C@@H]3O)ccc2cc1Cl` [Compound 249], the figures for the IC50 in assay [1] (setting [5]) and in assay [3] were 501 nM and 20 nM, respectively.
For `Nc1nc2cc(CC[C@H]3C[C@@H](n4ccc5nccnc54)[C@H](O)[C@@H]3O)ccc2cc1Cl` [Compound 250], in that order: 200 nM and 31.6 nM.
Regarding `C=Cc1cnc2cc(OC[C@H]3O[C@@H](n4ccc5c(N)ncnc54)[C@H](O)[C@@H]3O)ccc2c1` [Compound 253], the IC50 in assay [2] is 20 nM.

The values above are taken from patent US11318157B2, “6-6 bicyclic aromatic ring substituted nucleoside analogues for use as PRMT5 inhibitors” (Janssen Pharmaceutica NV, priority 2015, dated 2022).
